According to US5340829A, “Immunoregulatory agents” (priority 1992, dated 1994):
Entries after “also recorded” stand apart in the source; their conditions may differ.

Experiments:
[1] = tested on: delayed-type hypersensitivity (DTH); experiment: DTH ear swelling, comparison of sorbinil, tolrestat, WF-3681 and NSAIDs (Experiment 23, TABLE 5); assay type: in vivo, mice; settings: for Effect on DTH as measured by ear swelling (in words): mouse, in vivo
Experimental: Delayed type hypersensitivity, which involves the participation of T lymphocytes and macrophages, can be studied in vivo by exposing (or priming) a mammal to a novel antigen and then reexposing (or challenging) the primed animal to the same antigen four to seven days later. The classic DTH response includes symptoms of inflammatory response, induration and erythema, which peak at 24 to 48 hours after challenging and then decline slowly.
Eight-week old female C57BL/6J mice (Jackson Labs) were divided into primed and unprimed groups. The five mice in the primed group were primed to 2,4-dinitrofluorobenzene (DNFB; Sigma Chemical Co., Grade 1, approx. 98%, Lot 129C-0065, No. d-6879) by painting their shaved ventral skins with 0.1 ml of 0.5% DNFB in ethanol:acetone (3:1). The five mice in the unprimed group were shaved and topically painted on their ventral skins with the ethanol:acetone (3:1) vehicle alone. The mice in both groups were challenged with DNFB four days later. A suitable patch of skin, the ear, was chosen for challenging. One ear was designated for challenging and the other to serve as a control. The thickness of each ear across the pinna was measured using micrometer calipers. The first measurements were taken four days after priming and are plotted as day 0 in FIG. 13. Next, each mouse was subjected to the following challenge regimen: one ear was challenged with one drop of 0.35% DNFB in olive oil, and the other (unchallenged control) ear was exposed to olive oil alone. The ear thicknesses (ET) of the challenged ear and the unchallenged ear were measured daily, and the swelling responses are plotted in FIG. 13 as: [formula]
Three groups of eight-week old female C57BL/6J mice were primed to DNFB as previously described. […] Six hours later the first sets of ear measurements were taken, and one ear of each mouse was challenged.
The Table has 4 columns, listing (left to right) each drug tested in column 1, drug concentrations in column 2, relative swelling in column 3, and effectiveness in column 4.

[2] = tested on: Human polymorphonuclear leukocytes (PMNs); settings: known from the art; cited from earlier work
[3] = molecular target: aldose reductase; settings: approximate molar concentration necessary for 50% inhibition of aldose reductase; cited from earlier work
[4] = tested on: ear swelling in response to PMA; settings: general statement on NSAIDs; cited from earlier work
[5] = tested on: Human polymorphonuclear leukocytes (PMNs); experiment: LTB4 release by polymorphonuclear leukocytes (Experiment 10); assay type: cell-based; settings: normal human PMNs
Text: Human polymorphonuclear leukocytes (PMNs) were used to study LTB4 release, which is known to be involved in inflammation.

[6] = tested on: ear swelling produced by topical application of arachidonic acid; experiment: Ear swelling produced by topical arachidonic acid (Experiment 22); assay type: in vivo, mice; settings: topical administration
[7] = concentration 8.5 μM, 0 = no effect

SMILES	relative swelling (R) ([1]; concentration 8.5 μM)	effectiveness (1 - R) (100%) [1, 7]	Effect on DTH as measured by ear swelling (in words) [1]	IC50 [3]	further results
CC(=O)Nc1ccc(O)cc1 [Acetaminophen, acetaminophen]	1.0	0%	not effective in preventing DTH	–	–
CC(=O)Oc1ccccc1C(=O)O [Aspirin, acetylsalicylic acid]	1.0	0%	not effective in preventing DTH; also recorded: failed to inhibit DTH	~100 µM	LTB4 production (known) [2]: inhibit LTB4 production; Swelling of mouse ears in response to PMA (NSAIDs, stated in contrast) [4]: inhibit this response
O=c1c(O)c(-c2ccccc2)oc2ccccc12 [Hydroxyflavone, 3-hydroxyflavone]	–	–	–	~1 µM	–
CC(C)Cc1ccc(C(C)C(=O)O)cc1 (centres unmarked) [Ibuprofen, ibuprofen]	1.0	0%	not effective in preventing DTH	–	–
CCC1(c2ccccc2)C(=O)NC(=O)NC1=O [Phenobarbital, phenobarbital]	–	–	–	~1000 µM	–
C[C@@H]1O[C@@H](Oc2c(-c3ccc(O)c(O)c3)oc3cc(O)cc(O)c3c2=O)[C@H](O)[C@H](O)[C@H]1O [Quercitrin, quercitrin]	–	–	not effective in preventing DTH	–	effectiveness (1 - R) (100%) ([1]; concentration 3 μM): 2%; relative swelling (R) ([1]; concentration 3 μM): 0.98
O=C(O)CCC1OC(=O)C(O)=C1c1ccccc1 (centres unmarked) [WF-3681, 3-(2,5-dihydro-4-hydroxy-5-oxo-3-phenyl-2-furyl)propionic acid]	–	–	strong and substantially identical inhibitory effect	–	effectiveness (1 - R) (100%) ([1]; concentration 2.125 μM): 4%; relative swelling (R) ([1]; concentration 2.125 μM): 0.96; effectiveness (1 - R) (100%) ([1]; concentration 4.25 μM): 39%; relative swelling (R) ([1]; concentration 4.25 μM): 0.62; relative swelling (R) ([1]; concentration 6 μM): 0.68; Production of LTB4 [5]: no effect
COc1ccc2c(c1)c(CC(=O)O)c(C)n2C(=O)c1ccc(Cl)cc1 [indomethacin]	–	–	–	–	Ear swelling produced by topical arachidonic acid [6]: completely inhibited
CC1=C(/C=C/C(C)=C/C=C/C(C)=C/C(=O)O)C(C)(C)CCC1 [retinoic acid]	–	–	–	–	LTB4 production (known) [2]: inhibit LTB4 production
